Our source for the Ki values is patent US9868738B2, “Diazine-fused amidines as BACE inhibitors, compositions, and their use” (Merck Sharp & Dohme Corp., priority 2014, dated 2018).

In assay [1] the target is soluble human BACE1 catalytic domain (Homo sapiens (Human), UniProt P56817). Description: BACE-1 Ki Assay (BACE-1 HTRF FRET Assay). Format: biochemical. The settings on record: Ki calculated from IC50 using the Cheng-Prusoff equation; QSY7-APPswe-Eu substrate 200 nM, pH 5.0. The method, then: In another embodiment, the compounds of the invention comprise the example compounds shown in the table below, or a tautomer thereof, or a pharmaceutically acceptable salt of said compound or said tautomer. Examples 2 to 42 were prepared using the method similar to Ex. 1. Example 44 to 51 were synthesized using the method similar to Ex. 43. BACE-1 values reported in this table were measured using BACE-1 Ki Assay (BACE-1 HTRF FRET Assay).
soluble human BACE1 catalytic domain, sequence (P56817 75-416): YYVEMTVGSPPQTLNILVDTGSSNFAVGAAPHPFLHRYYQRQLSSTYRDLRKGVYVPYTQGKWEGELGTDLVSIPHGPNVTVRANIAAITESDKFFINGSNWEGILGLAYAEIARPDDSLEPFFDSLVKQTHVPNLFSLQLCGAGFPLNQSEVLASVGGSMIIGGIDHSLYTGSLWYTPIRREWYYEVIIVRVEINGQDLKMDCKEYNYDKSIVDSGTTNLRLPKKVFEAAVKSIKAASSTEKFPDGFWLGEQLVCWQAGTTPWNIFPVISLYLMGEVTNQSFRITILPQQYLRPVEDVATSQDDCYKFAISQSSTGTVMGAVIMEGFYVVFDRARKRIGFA
• Reagents: Na^+-Acetate pH 5.0; 1% Brij-35; Glycerol; Dimethyl Sulfoxide (DMSO); Recombinant human soluble BACE1 catalytic domain (>95% pure); APP Swedish mutant peptide substrate (QSY7-APP^swe-Eu): QSY7-EISEVNLDAEFC-Europium-amide.
A homogeneous time-resolved FRET assay can be used to determine IC50 values for inhibitors of the soluble human BACE1 catalytic domain. This assay monitors the increase of 620 nm fluorescence that resulted from BACE1 cleavage of an APPswedish APP^swe mutant peptide FRET substrate (QSY7-EISEVNLDAEFC-Europium-amide). This substrate contains an N-terminal QSY7 moiety that serves as a quencher of the C-terminal Europium fluorophore (620 nm Em). In the absence of enzyme activity, 620 nm fluorescence is low in the assay and increased linearly over 3 hours in the presence of uninhibited BACE1 enzyme. Inhibition of BACE1 cleavage of the QSY7-APP^swe-Eu substrate by inhibitors is manifested as a suppression of 620 nm fluorescence.
Varying concentrations of inhibitors at 3× the final desired concentration in a volume of 10 ul are preincubated with purified human BACE1 catalytic domain (3 nM in 10 μl) for 30 minutes at 30° C. in reaction buffer containing 20 mM Na-Acetate pH 5.0, 10% glycerol, 0.1% Brij-35 and 7.5% DSMO. Reactions are initiated by addition of 10 μl of 600 nM QSY7-APP^swe-Eu substrate (200 nM final) to give a final reaction volume of 30 μl in a 384 well Nunc HTRF plate. The reactions are incubated at 30° C. for 1.5 hours. The 620 nm fluorescence is then read on a Rubystar HTRF plate reader (BMG Labtechnologies) using a 50 millisecond delay followed by a 400 millisecond acquisition time window. Inhibitor IC50 values are derived from non-linear regression analysis of concentration response curves. Ki values are then calculated from IC50 values using the Cheng-Prusoff equation using a previously determined […] of 8 μM for the QSY7-APP^swe-Eu substrate at BACE1.

Assay [2] concerns the target purified human autoBACE-2 (Homo sapiens (Human), UniProt Q9Y5Z0). The experiment in a line: BACE-2 Assay (BACE-HTRF assay). Format: biochemical. The settings on record: Ki calculated from IC50 using the Cheng-Prusoff equation; QSY7-EISEVNLDAEFC-Eu-amide substrate 200 nM, pH 5.0. The method, then:
Inhibitor IC50s at purified human autoBACE-2 are determined in a time-resolved endpoint proteolysis assay that measures hydrolysis of the QSY7-EISEVNLDAEFC-Eu-amide FRET peptide substrate (BACE-HTRF assay). BACE-mediated hydrolysis of this peptide results in an increase in relative fluorescence (RFU) at 620 nm after excitation with 320 nm light. Inhibitor compounds, prepared at 3× the desired final concentration in 1×BACE assay buffer (20 mM sodium acetate pH 5.0, 10% glycerol, 0.1% Brij-35) supplemented with 7.5% DMSO are pre-incubated with an equal volume of autoBACE-2 enzyme diluted in 1×BACE assay buffer (final enzyme concentration 1 nM) in black 384-well NUNC plates for 30 minutes at 30° C. […] DMSO is present at […] final concentration in the assay. Following laser excitation of sample wells at 320 nm, the fluorescence signal at 620 nm is collected for 400 ms following a 50 μs delay on a RUBYstar HTRF plate reader (BMG Labtechnologies). Raw RFU data is normalized to maximum (1.0 nM BACE/DMSO) and minimum (no enzyme/DMSO) RFU values. IC50s are determined by nonlinear regression analysis (sigmoidal dose response, variable slope) of percent inhibition data with minimum and maximum values set to 0 and 100 percent respectively. Similar IC50s are obtained when using raw RFU data. The Ki values are calculated from the IC50 using the Cheng-Prusoff equation.

purified human autoBACE-2, sequence (Q9Y5Z0 63-473 limits assumed): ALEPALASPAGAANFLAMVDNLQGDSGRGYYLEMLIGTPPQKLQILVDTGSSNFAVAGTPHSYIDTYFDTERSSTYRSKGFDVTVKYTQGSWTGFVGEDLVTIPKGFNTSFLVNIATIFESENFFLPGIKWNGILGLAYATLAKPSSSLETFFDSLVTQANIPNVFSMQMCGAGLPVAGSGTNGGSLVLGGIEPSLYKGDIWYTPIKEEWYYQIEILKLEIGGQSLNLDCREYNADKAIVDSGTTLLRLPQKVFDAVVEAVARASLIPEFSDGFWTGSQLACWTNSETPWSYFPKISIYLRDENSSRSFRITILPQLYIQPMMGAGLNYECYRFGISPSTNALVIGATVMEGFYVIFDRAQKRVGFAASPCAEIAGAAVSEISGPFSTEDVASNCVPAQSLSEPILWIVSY

Consider `Cc1ncc2c(n1)C[C@@](C)(c1sc(-c3ccc(F)c(C#N)c3)cc1Cl)NC2=N` [Example 27, 5-{4-chloro-5-[(7S)-5-imino-2,7-dimethyl-5,6,7,8-tetrahydropyrido[4,3-d]pyrimidin-7-yl]thiophen-2-yl}-2-fluorobenzonitrile], for which the values for the inhibition constant Ki in assay [1] and in assay [2] were 52.1 nM and 28.3 nM, respectively.

`Cc1ncc2c(n1)C[C@@](C)(c1sc(-c3cc(F)cc(-c4nnco4)c3)cc1Cl)NC2=N` [Example 28, (7S)-7-{3-chloro-5-[3-fluoro-5-(1,3,4-oxadiazol-2-yl)phenyl]thiophen-2-yl}-2,7-dimethyl-7,8-dihydropyrido[4,3-d]pyrimidin-5(6H)-imine]: the values for the Ki in assay [1] and in assay [2] were 16.6 nM and 24.4 nM, respectively.

With `Cc1ncc2c(n1)C[C@@](C)(c1sc(-c3cccc(-c4ncno4)c3)cc1Cl)NC2=N` [Example 29, (7S)-7-{3-chloro-5-[3-(1,2,4-oxadiazol-5-yl)phenyl]thiophen-2-yl}-2,7-dimethyl-7,8-dihydropyrido[4,3-d]pyrimidin-5(6H)-imine], the Ki (usually a measure of affinity in units of concentration, obtained from inhibition or displacement) was 482 nM in assay [1] and 79.7 nM in assay [2].

On to `C[C@@]1(c2cc(-c3cccc(C#N)c3)cs2)Cc2nc(C3CC3)ncc2C(=N)N1` [Example 32, 3-{5-[(7S)-2-cyclopropyl-5-imino-7-methyl-5,6,7,8-tetrahydropyrido[4,3-d]pyrimidin-7-yl]thiophen-3-yl}benzonitrile], for which the Ki was 128 nM in assay [1] and 65.6 nM in assay [2].

On to `COc1cccc2cc(-c3csc([C@]4(C)Cc5nc(C6CC6)ncc5C(=N)N4)c3)[nH]c12` [Example 33, (7S)-2-cyclopropyl-7-[4-(7-methoxy-1H-indo1-2-yl)thiophen-2-yl]-7-methyl-7,8-dihydropyrido[4,3-d]pyrimidin-5(6H)-imine], for which the Ki in assay [1] was 38.2 nM; in assay [2], 4.8 nM.

With `C[C@@]1(c2cc(-c3cccc(-c4nnco4)c3)cs2)Cc2nc(C3CC3)ncc2C(=N)N1` [Example 34, (7S)-2-cyclopropyl-7-methyl-7-{4-[3-(1,3,4-oxadiazol-2-yl)phenyl]thiophen-2-yl}-7,8-dihydropyrido[4,3-d]pyrimidin-5(6H)-imine], the Ki was 85 nM in assay [1] and 215 nM in assay [2].

Turning to `C[C@@]1(c2cc(-c3cncc(C#N)c3)cs2)Cc2nc(C3CC3)ncc2C(=N)N1` [Example 35, 5-{5-[(7S)-2-cyclopropyl-5-imino-7-methyl-5,6,7,8-tetrahydropyrido[4,3-d]pyrimidin-7-yl]thiophen-3-yl}pyridine-3-carbonitrile], the Ki in assay [1] was 224 nM; in assay [2] it was 142 nM.

Take `C[C@@]1(c2sc(-c3cccc(C#N)c3)cc2Cl)Cc2nc(C3CC3)ncc2C(=N)N1` [Example 36, 3-{4-chloro-5-[(7S)-2-cyclopropyl-5-imino-7-methyl-5,6,7,8-tetrahydropyrido[4,3-d]pyrimidin-7-yl]thiophen-2-yl}benzonitrile]: the Ki was 48.9 nM in assay [1] and 21.5 nM in assay [2].

`C[C@@]1(c2sc(-c3cncc(C#N)c3)cc2Cl)Cc2nc(C3CC3)ncc2C(=N)N1` [Example 37, 5-{4-chloro-5-[(7S)-2-cyclopropyl-5-imino-7-methyl-5,6,7,8-tetrahydropyrido[4,3-d]pyrimidin-7-yl]thiophen-2-yl}pyridine-3-carbonitrile]: the inhibition constant Ki in assay [1] was 94.7 nM; in assay [2] it was 44.2 nM.

On to `COc1cccc2cc(-c3cc(Cl)c([C@]4(C)Cc5nc(C6CC6)ncc5C(=N)N4)s3)[nH]c12` [Example 38, (7S)-7-[3-chloro-5-(7-methoxy-1H-indo1-2-yl)thiophen-2-yl]-2-cyclopropyl-7-methyl-7,8-dihydropyrido[4,3-d]pyrimidin-5(6H)-imine], for which the Ki was 22.3 nM in assay [1] and 2 nM in assay [2].

Consider `COc1cccc2cc(-c3csc([C@]4(C)Cc5nc(C(F)(F)F)ncc5C(=N)N4)c3)[nH]c12` [Example 39, (7S)-7-[4-(7-methoxy-1H-indo1-2-yl)thiophen-2-yl]-7-methyl-2-(trifluoromethyl)-7,8-dihydropyrido[4,3-d]pyrimidin-5(6H)-imine], for which the Ki was 28.9 nM in assay [1] and 1.5 nM in assay [2].

With `C[C@@]1(c2cc(-c3cccc(C#N)c3)cs2)Cc2nc(C(F)(F)F)ncc2C(=N)N1` [Example 40, 3-{5-[(7S)-5-imino-7-methyl-2-(trifluoromethyl)-5,6,7,8-tetrahydropyrido[4,3-d]pyrimidin-7-yl]thiophen-3-yl}benzonitrile], the Ki was 58.2 nM in assay [1] and 23.1 nM in assay [2].

In the case of `C[C@@]1(c2cc(-c3cncc(C#N)c3)cs2)Cc2nc(C(F)(F)F)ncc2C(=N)N1` [Example 41, 5-{5-[(7S)-5-imino-7-methyl-2-(trifluoromethyl)-5,6,7,8-tetrahydropyrido[4,3-d]pyrimidin-7-yl]thiophen-3-yl}pyridine-3-carbonitrile], the Ki in assay [1] was 208 nM; in assay [2] it was 97.7 nM.

For `C[C@@]1(c2cc(-c3cccc(-c4nnco4)c3)cs2)Cc2nc(C(F)(F)F)ncc2C(=N)N1` [Example 42, (7S)-7-methyl-7-{4-[3-(1,3,4-oxadiazol-2-yl)phenyl]thiophen-2-yl}-2-(trifluoromethyl)-7,8-dihydropyrido[4,3-d]pyrimidin-5(6H)-imine], the Ki in assay [1] is 49.6 nM; in assay [2] it was 121 nM.

`C[C@@]1(c2cc(NC(=O)c3ccc(F)cn3)ccc2F)Cc2ncncc2C(=N)N1` [Example 43, 5-fluoro-N-{4-fluoro-3-[(7S)-5-imino-7-methyl-5,6,7,8-tetrahydropyrido[4,3-d]pyrimidin-7-yl]phenyl}pyridine-2-carboxamide]: the Ki in assay [1] was 9.4 nM; in assay [2], 3 nM.

Turning to `Cc1ncc2c(n1)C[C@@](C)(c1cc(NC(=O)c3ccc(F)cn3)ccc1F)NC2=N` [Example 44, 5-fluoro-N-{4-fluoro-3-[(7S)-5-imino-2,7-dimethyl-5,6,7,8-tetrahydropyrido[4,3-d]pyrimidin-7-yl]phenyl}pyridine-2-carboxamide], the Ki is 16.8 nM in assay [1] and 4.5 nM in assay [2].

In the case of `Cc1ncc2c(n1)C[C@@](C)(c1cc(NC(=O)c3ccc(Cl)cn3)ccc1F)NC2=N` [Example 45, 5-chloro-N-{4-fluoro-3-[(7S)-5-imino-2,7-dimethyl-5,6,7,8-tetrahydropyrido[4,3-d]pyrimidin-7-yl]phenyl}pyridine-2-carboxamide], the Ki in assay [1] is 10.4 nM; in assay [2], 4.2 nM.

With `Cc1ncc2c(n1)C[C@@](C)(c1cc(NC(=O)c3ccc(C(F)(F)F)cn3)ccc1F)NC2=N` [Example 46, N-{4-fluoro-3-[(7S)-5-imino-2,7-dimethyl-5,6,7,8-tetrahydropyrido[4,3-d]pyrimidin-7-yl]phenyl}-5-(trifluoromethyl)pyridine-2-carboxamide], the Ki is 18.1 nM in assay [1] and 48.3 nM in assay [2].

For the molecule `COc1ccc(C(=O)Nc2ccc(F)c([C@]3(C)Cc4nc(C)ncc4C(=N)N3)c2)nc1` [Example 47, N-{4-fluoro-3-[(7S)-5-imino-2,7-dimethyl-5,6,7,8-tetrahydropyrido[4,3-d]pyrimidin-7-yl]phenyl}-5-methoxypyridine-2-carboxamide], the Ki is 15.4 nM in assay [1] and 15.3 nM in assay [2].
